We go through three compounds from patent US12110293B2, “Substituted triazolo quinoxaline derivatives” (GRÜNENTHAL GMBH, priority 2018, dated 2024).

The test addresses T1, glucocorticoid receptor (Homo sapiens, UniProt P04150).
T1 construct: expressed in transfected cells
T1 sequence (P04150 524-758 limits assumed): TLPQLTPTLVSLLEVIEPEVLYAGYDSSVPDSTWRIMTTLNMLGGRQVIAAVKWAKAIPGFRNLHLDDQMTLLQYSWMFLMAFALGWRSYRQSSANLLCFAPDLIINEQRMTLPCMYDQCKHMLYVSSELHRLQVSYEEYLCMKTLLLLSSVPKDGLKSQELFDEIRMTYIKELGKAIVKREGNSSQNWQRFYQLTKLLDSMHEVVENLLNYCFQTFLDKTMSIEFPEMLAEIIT
Description: Agonistic mode of action on the glucocorticoid receptor (CHO-Gal4/GR luciferase reporter cell line). Particulars: range class observed in the agonistic assay or the antagonistic assay (CHO-Gal4/GR reporter cells); table does not say which mode applies per example. In kind it is cell-based. In short, it runs like this:
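Agonism measured as dose-dependent luciferase luminescence (FLIPR Tetra) from a GAL4-UAS reporter driven by GAL4 DBD fused to GR ligand-binding domain in stable CHO cells. Eight half-log doses, 10 μM to 0.003 μM final in 0.5% DMSO, quadruplicate, on cells seeded 24 h earlier at 5000/well; EC50 derived.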

`Cc1c(-c2ccc(F)c3[nH]ccc23)c(Cl)cc2c1-n1c(C)nnc1C(C)(C)N2` [Example 506, 7-Chloro-8-(7-fluoro-1H-indol-4-yl)-1,4,4,9-tetramethyl-5H-[1,2,4]triazolo[4,3-a]quinoxaline]: the IC50 or EC50 (agonist or antagonist mode not specified) was 100 to 1000 nM. `Cc1c(-c2cccc3c2ccn3CC(F)F)c(Cl)cc2c1-n1c(C)nnc1C(C)(C)N2` [Example 327, 7-Chloro-8-[1-(2,2-difluoro-ethyl)-1H-indol-4-yl]-1,4,4,9-tetramethyl-5H-[1,2,4]triazolo[4,3-a]quinoxaline] displayed an IC50 or EC50 (agonist or antagonist mode not specified) of 100 to 1000 nM. For the compound `Cc1cc(-c2c(F)cc3c(c2C(F)F)-n2c(C)nnc2C(C)(C)N3)c2ccn(S(C)(=O)=O)c2c1` [Example 478, 9-(Difluoro-methyl)-7-fluoro-1,4,4-trimethyl-8-(6-methyl-1-methylsulfonyl-1H-indol-4-yl)-5H-[1,2,4]triazolo[4,3-a]quinoxaline], the IC50 or EC50 (agonist or antagonist mode not specified) was in the range of 100 to 1000 nM.
